Measurements: patent US8877968B2, “Melanocortin receptor modulators, process for preparing them and use there in human medicine and cosmetics” (Galderma Research & Development, priority 2008, dated 2014)

Assays:
hMC1R = target: T1, hMC1R (Homo sapiens, UniProt Q01726); assay: Transactivation test (CRE-Luc luciferase, agonist mode); type: cell-based; conditions: HEK293 transfected with pCRE-Luc and hMC1R; products tested alone (agonist), 6 hours; normalized to NDP-MSH 10 nM = 100%; read-out: EC50 hMC1-R
T1 construct: expressed in transfected cells; host or cells: HEK293
T1 sequence (Q01726 whole entry): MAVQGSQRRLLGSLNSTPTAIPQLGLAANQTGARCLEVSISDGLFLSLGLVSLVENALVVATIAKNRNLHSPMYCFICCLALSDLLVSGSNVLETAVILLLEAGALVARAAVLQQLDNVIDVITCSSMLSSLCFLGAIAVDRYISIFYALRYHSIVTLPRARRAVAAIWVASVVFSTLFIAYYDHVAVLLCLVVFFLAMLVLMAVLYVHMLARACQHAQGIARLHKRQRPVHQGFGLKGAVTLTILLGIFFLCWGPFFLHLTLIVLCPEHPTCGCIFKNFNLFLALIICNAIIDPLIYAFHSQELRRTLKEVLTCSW
Procedure: The lines HEK293 are transfected with vectors pCRE-Luc and hMC1R. The cells are cultured at 37° C. and 5% CO2, in DMEM medium supplemented with 10% foetal calf serum.
In the presence of an activator (agonist), the melanocortin receptor will activate the cAMP pathway, which, via the vector CRE-Luc, will lead to the synthesis of luciferase. After addition of a lysis buffer containing a luminescent luciferase substrate, the luminescence proportional to the degree of activation or inhibition of receptor may be measured.
The products are dissolved at 10 mM in DMSO. They are tested as a response dose at 0.1% of DMSO final. The range comprising 10 points and a zero starts at 10 μM with four-fold dilutions. To test agonists, the products are tested alone. To determine the antagonist behaviour, the products of interest are tested in the presence of 1 nM NDP-MSH (reference agonist). The cells are inoculated at a rate of 5000 cells per well (384-well plate) in serum-free DMEM medium and incubated overnight at 37° C. and 5% CO2.
The products and the reference ligand (NDP-MSH) are added the following day and the plates are reincubated for 6 hours at 37° C. and 5% CO2. After adding the lysis buffer containing luciferin, the plates are read in a Top-Count machine. […] An EC50 is calculated for each product using the XLFit software. […]

B6.Cg-Ay mice = assay: Modulation of the pigmentation of hair during regrowth after depilation in mice; type: in vivo; conditions: female B6.Cg-Ay mice; 5% in ethanol applied topically every day for 11 days after depilation; chromametry 19 days after depilation; smaller L = darker hair
From the text: FIG. 2 is a bar graph showing the modulation of the pigmentation of hair during regrowth after depilation in mice, where the L value measures color on a scale where the smaller the value of L, the darker the hair, for two compounds of the invention diluted in ethanol and applied topically each day for 11 days after depilation.
Modulation of the Pigmentation of Hair During Regrowth After Depilation in Mice: (Results in Table of FIG. 2)
Female 8-week-old B6.Cg-Ay mice are shaved and then subjected to depilation with cold wax under gaseous anaesthesia to synchronize all the hair follicles at the start of the anagenic phase.
After depilation, the MC1R agonists diluted to 5% in ethanol are applied topically every day to the depilated area for 11 days. Nineteen days after depilation, the pigmentation of the hairs is measured by chromametry on the area of regrowth: the L value measures the colour on a scale ranging from black to white (the smaller the value of L, the darker the hair).

[1] = Test of metabolic stability in the presence of liver microsomes; type: in vitro ADME; conditions: liver microsomes 0.5 mg/ml, product 10 μM, 37° C., pH 7.4, NADP/G6P cofactors; disappearance of parent by LC/MS/MS; species not given; read-out: t½
Procedure: Test of Metabolic Stability in the Presence of Liver Microsomes
The microsomes are cellular endoplasmic reticulum vesicles obtained after purification, from liver tissue. They contain membrane enzymes (Cytochromes P450) involved in oxidative metabolism (phase I).
In a buffered reaction medium at 37° C., the test product is incubated in the presence of microsomes from different species. Samples of the incubate are taken at different times (kinetics). Quantification by LC/MS/MS analysis makes it possible to measure the disappearance of parent product associated with the phase I liver metabolism.
The products are dissolved at 10 mM in DMSO. They are incubated at 10 μM in the presence of microsomes (0.5 mg/ml). The reaction medium is formed from 100 mM phosphate buffer at pH 7.4, G6PDH (0.4 U/ml), 0.01% Pluronic acid and cofactors MgCl2 5 mM, NADP and G6P (1.3 mM and 3.3 mM, respectively). Samples of the reaction medium are taken at 0, 5, 10, 15, 30 and 60 minutes. At each time, the enzymatic reaction is stopped by adding methanol. After centrifugation (3000 rpm, 30 minutes), the samples are analysed by LC/MS/MS. The concentration of parent product remaining is quantified over time and allows a half-life to be calculated for each product.

[2] = Log P and Log D by HPLC-MS (octanol-water); type: physicochemical; conditions: octanol/water (50/50 v/v); octanol-water 50/50, pH 6.5, LC/MS/MS
From the text: Lod P and Loci D by HPLC-MS
Log P, also known as Log Kow, (octanol/water partition coefficient) enables characterization of the lipophilic nature of a molecule. Log P=Log(Coct/Cwater)
In contrast with Log P, Log D is a determination of a given pH.
Preparation of the Samples
The molecule at 10^−2M in DMSO is placed in an octanol-water mixture (50/50 volume/volume).
After stirring for ten hours, the sample is centrifuged and the two phases are separated in order to be analysed. The octanol phase is diluted in methanol before assay.
The concentrations of test molecule present in each phase are determined by an LC/MS/MS analysis. Log P=Log(areaoct*Dilution factor/areaaq)

| EC50 (hMC1R) [µM] | half-life at 10 μM [1] [min] | logD at 10 h [2] | SMILES | Value of L at D19, Mean (B6.Cg-Ay mice) |
| --- | --- | --- | --- | --- |
| 0.06 | 3 to 4 | 4 | CCOC(=O)C1(C2CCCCC2)CCN(C(=O)[C@@H](Cc2ccc(OC)cc2)NC(=O)NCCc2c[nH]cn2)CC1 [Compound 34, Ethyl 4-cyclohexyl-1-[(R)-2-{3-[2-(1H-imidazol-4-yl)ethyl]-ureido}-3-(4-methoxyphenyl)propionyl]piperidine-4-carboxylate] | 27.42 |
| 0.12 | 3 to 4 | 4.8 | CCCC(=O)C1(C2CCCCC2)CCN(C(=O)[C@@H](Cc2ccc(OC)cc2)NC(=O)NCCc2c[nH]cn2)CC1 [Compound 40, 1-[(R)-2-(4-Butyryl-4-cyclohexylpiperidin-1-yl)-1-(4-methoxybenzyl)-2-oxoethyl]-3-[2-(1H-imidazol-4-yl)ethyl]urea] | 31.00 |
